From ChEMBL document CHEMBL1201862, “PubChem BioAssay data set” (2004)
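1) Cells in 96-well plates. 2) Compound, 48 h, 5 concentrations. 3) Linear interpolation between surrounding doses. 4) Unreached endpoint = highest concentration. GI50 marks 50% less growth.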 Active and inactive are the calls of the source. Rule as the data show it: active = GI50 up to about 1.1 µM and inactive = higher.

Tests used:
Test in all cases: DTP human tumour cell line panel, 48 h
HCT-15 = tested on: HCT-15
Malme-3M = tested on: Malme-3M
DLD-1 = tested on: DLD-1
SK-MEL-5 = tested on: SK-MEL-5
UACC-62 = tested on: UACC-62
A498 = tested on: A498
SF-268 = tested on: SF-268
HL-60 = tested on: HL-60
NCI-H522 = tested on: NCI-H522
KM12 = tested on: KM12
DMS-114 = tested on: DMS-114
M19-MEL = tested on: M19-MEL
CAKI-1 = tested on: CAKI-1
SN12C = tested on: SN12C
IGROV-1 = tested on: IGROV-1
RPMI-8226 = tested on: RPMI-8226
A549 = tested on: A549
M14 = tested on: M14
SK-MEL-2 = tested on: SK-MEL-2
SF-295 = tested on: SF-295
XF498 = tested on: XF498
HOP-18 = tested on: HOP-18
HOP-62 = tested on: HOP-62
SF-539 = tested on: SF-539
LXFL 529 = tested on: LXFL 529
LOX IMVI = tested on: LOX IMVI
UO-31 = tested on: UO-31
KM-20L2 = tested on: KM-20L2
CCRF-CEM = tested on: CCRF-CEM
HCC 2998 = tested on: HCC 2998
EKVX = tested on: EKVX
HCT-116 = tested on: HCT-116
OVCAR-5 = tested on: OVCAR-5
SW-620 = tested on: SW-620
K562 = tested on: K562
MOLT-4 = tested on: MOLT-4
ACHN = tested on: ACHN
OVCAR-3 = tested on: OVCAR-3
NCI-H226 = tested on: NCI-H226
SNB-75 = tested on: SNB-75
SK-OV-3 = tested on: SK-OV-3
NCI-H460 = tested on: NCI-H460
UACC-257 = tested on: UACC-257
SNB-78 = tested on: SNB-78
COLO 205 = tested on: COLO 205
HT-29 = tested on: HT-29
OVCAR-8 = tested on: OVCAR-8
SNB-19 = tested on: SNB-19
OVCAR-4 = tested on: OVCAR-4
SK-MEL-28 = tested on: SK-MEL-28
RXF 393 = tested on: RXF 393
HOP-92 = tested on: HOP-92
786-0 = tested on: 786-0
NCI-H23 = tested on: NCI-H23
TK-10 = tested on: TK-10
U-251 = tested on: U-251

CN(C)c1ccc(/C=C/C(=O)O)cc1
GI50 (HCT-15): > 100 µM | GI50 (Malme-3M): > 100 µM (inactive) | GI50 (DLD-1): > 100 µM (inactive) | GI50 (SK-MEL-5): > 100 µM (inactive) | GI50 (UACC-62): > 100 µM (inactive) | GI50 (A498): > 100 µM (inactive) | GI50 (SF-268): > 100 µM (inactive) | GI50 (HL-60): > 100 µM (inactive) | GI50 (NCI-H522): > 100 µM (inactive) | GI50 (KM12): > 100 µM (inactive) | GI50 (DMS-114): > 100 µM (inactive) | GI50 (M19-MEL): > 100 µM (inactive) | GI50 (CAKI-1): > 100 µM (inactive) | GI50 (SN12C): > 100 µM (inactive) | GI50 (IGROV-1): > 100 µM (inactive) | GI50 (RPMI-8226): > 100 µM (inactive) | GI50 (A549): > 100 µM (inactive) | GI50 (M14): > 100 µM (inactive) | GI50 (SK-MEL-2): > 100 µM (inactive) | GI50 (SF-295): > 100 µM (inactive) | GI50 (XF498): > 100 µM (inactive) | GI50 (HOP-18): > 100 µM (inactive) | GI50 (HOP-62): > 100 µM (inactive) | GI50 (SF-539): > 100 µM (inactive) | GI50 (LXFL 529): > 100 µM (inactive) | GI50 (LOX IMVI): > 100 µM (inactive) | GI50 (UO-31): > 100 µM (inactive) | GI50 (KM-20L2): > 100 µM (inactive) | GI50 (CCRF-CEM): > 100 µM (inactive) | GI50 (HCC 2998): > 100 µM (inactive) | GI50 (EKVX): > 100 µM (inactive) | GI50 (HCT-116): > 100 µM (inactive) | GI50 (OVCAR-5): > 100 µM (inactive) | GI50 (SW-620): > 100 µM (inactive) | GI50 (K562): > 100 µM (inactive) | GI50 (MOLT-4): > 100 µM (inactive) | GI50 (ACHN): > 100 µM (inactive) | GI50 (OVCAR-3): 49.3 µM (inactive) | GI50 (NCI-H226): > 100 µM (inactive) | GI50 (SNB-75): > 100 µM (inactive) | GI50 (SK-OV-3): > 100 µM (inactive) | GI50 (NCI-H460): > 100 µM (inactive) | GI50 (UACC-257): > 100 µM (inactive) | GI50 (SNB-78): > 100 µM (inactive) | GI50 (COLO 205): > 100 µM (inactive) | GI50 (HT-29): > 100 µM (inactive) | GI50 (OVCAR-8): > 100 µM (inactive) | GI50 (SNB-19): > 100 µM (inactive)

C=C1CCc2occ(C)c2C2C1C1=C(CC(C)C1=O)C1OC12C (stereo unspecified)
GI50 (HCT-15): > 100 µM | GI50 (Malme-3M): > 100 µM (inactive) | GI50 (DLD-1): > 100 µM (inactive) | GI50 (OVCAR-4): > 100 µM (inactive) | GI50 (SK-MEL-5): 52.2 µM (inactive) | GI50 (UACC-62): 52 µM (inactive) | GI50 (A498): > 100 µM (inactive) | GI50 (SF-268): > 100 µM (inactive) | GI50 (NCI-H522): 44.8 µM (inactive) | GI50 (KM12): > 100 µM (inactive) | GI50 (DMS-114): 99.1 µM (inactive) | GI50 (SK-MEL-28): > 100 µM (inactive) | GI50 (RXF 393): > 100 µM (inactive) | GI50 (M19-MEL): > 100 µM (inactive) | GI50 (SN12C): > 100 µM (inactive) | GI50 (IGROV-1): > 100 µM (inactive) | GI50 (A549): > 100 µM (inactive) | GI50 (M14): > 100 µM (inactive) | GI50 (SK-MEL-2): > 100 µM (inactive) | GI50 (SF-295): > 100 µM (inactive) | GI50 (XF498): 91.6 µM (inactive) | GI50 (HOP-18): 2.26 µM (inactive) | GI50 (HOP-62): > 100 µM (inactive) | GI50 (HOP-92): > 100 µM (inactive) | GI50 (SF-539): > 100 µM (inactive) | GI50 (LXFL 529): > 100 µM (inactive) | GI50 (LOX IMVI): > 100 µM (inactive) | GI50 (UO-31): 4.03 µM (inactive) | GI50 (KM-20L2): > 100 µM (inactive) | GI50 (CCRF-CEM): > 100 µM (inactive) | GI50 (HCC 2998): > 100 µM (inactive) | GI50 (EKVX): > 100 µM (inactive) | GI50 (HCT-116): 83 µM (inactive) | GI50 (OVCAR-5): 21.8 µM (inactive) | GI50 (SW-620): > 100 µM (inactive) | GI50 (K562): > 100 µM (inactive) | GI50 (MOLT-4): > 100 µM (inactive) | GI50 (786-0): > 100 µM (inactive) | GI50 (ACHN): > 100 µM (inactive) | GI50 (NCI-H23): > 100 µM (inactive) | GI50 (OVCAR-3): > 100 µM (inactive) | GI50 (NCI-H226): > 100 µM (inactive) | GI50 (SNB-75): 34.7 µM (inactive) | GI50 (SK-OV-3): > 100 µM (inactive) | GI50 (TK-10): > 100 µM (inactive) | GI50 (NCI-H460): > 100 µM (inactive) | GI50 (UACC-257): > 100 µM (inactive) | GI50 (SNB-78): > 100 µM (inactive) | GI50 (COLO 205): > 100 µM (inactive) | GI50 (HT-29): > 100 µM (inactive) | GI50 (OVCAR-8): > 100 µM (inactive) | GI50 (U-251): > 100 µM (inactive) | GI50 (SNB-19): 26.5 µM (inactive)
